Test systems include HT-29; HCC 2998; RPMI-8226; OVCAR-3; NCI-H226; EKVX; CCRF-CEM; OVCAR-8; A549; HL-60; NCI/ADR-RES; SK-MEL-2; A498; RXF 393; SF-268; HOP-62; HOP-92; HCT-116; KM12; Hs-578T.
Assay in all cases: growth of human tumour cells (NCI), 48 h

This is an account of results in ChEMBL document CHEMBL1201862, “PubChem BioAssay data set” (2004).

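Grown in 96-well plates, cells were treated for 48 hours with each compound at five concentrations. Insufficient inhibition: endpoint recorded as highest concentration tested. GI50 marks 50% less growth.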 Active and inactive are the calls of the source. Cut-off read from the data, not from the text of the source: active = GI50 up to about 1.1 µM and inactive = higher.

As for `N#CC(/N=N/c1ccccc1)c1nc2ccccc2o1` (stereo not given), the GI50 in the test with HT-29 was 61.4 µM (inactive); in the test on HCC 2998 it was > 100 µM (inactive); in the test with RPMI-8226 it was 23.6 µM (inactive); with OVCAR-3 it was 25.4 µM (inactive); in the test with NCI-H226, 35.7 µM (inactive); in the test on EKVX, 20.2 µM (inactive). Moreover, the GI50 is 34.6 µM (inactive) in the test on CCRF-CEM; 24.5 µM (inactive) in the test with OVCAR-8; 27.4 µM (inactive) in the test on A549; > 100 µM (inactive) in the test with HL-60; 23.8 µM (inactive) with NCI/ADR-RES; 25.4 µM (inactive) in the test with SK-MEL-2. In addition, the GI50 was 76.9 µM (inactive) in the test with A498; 22.6 µM (inactive) in the test on RXF 393; 22.2 µM (inactive) with SF-268; 20.3 µM (inactive) in the test on HOP-62; 15 µM (inactive) with HOP-92; 21.7 µM (inactive) with HCT-116. Besides, the GI50 in the test with KM12 is 49.7 µM (inactive); in the test with Hs-578T it was 22.3 µM (inactive).

As to `CC1=C/C(=N\NC(N)=S)C(C(O)(C(F)(F)F)C(F)(F)F)C(C)(C)C1` (stereo not given), the GI50 in the test on HT-29, with HCC 2998, in the test on RPMI-8226, in the test with OVCAR-3, with NCI-H226 and in the test on EKVX was > 10 µM (inactive) in each case. The GI50 in the test on CCRF-CEM, in the test with OVCAR-8, in the test with A549, in the test with HL-60, in the test on NCI/ADR-RES and in the test with SK-MEL-2 was > 10 µM (inactive) in each case. In addition, the GI50 in the test with A498, in the test on RXF 393, in the test on SF-268, with HOP-62, in the test on HOP-92 and with HCT-116 was > 10 µM (inactive) each time. Moreover, the GI50 in the test on KM12 and in the test with Hs-578T was > 10 µM (inactive) throughout.

Turning to `COc1cc([C@@H]2c3cc4c(cc3[C@@H](/N=C/c3ccc(C(=O)O[C@@H](C(=O)O[C@H]5C[C@@]6(O)[C@@H](OC(=O)c7ccccc7)[C@@H]7[C@]8(OC(C)=O)CO[C@@H]8C[C@H](O)[C@@]7(C)C(=O)[C@H](OC(C)=O)C(=C5C)C6(C)C)[C@@H](NC(=O)c5ccccc5)c5ccccc5)cc3)[C@H]3COC(=O)[C@H]23)OCO4)cc(OC)c1O`, the GI50 in the test on HT-29 is 0.0103 µM (active); in the test with HCC 2998 it was 0.0189 µM (active); in the test with RPMI-8226 it was < 0.005 µM (active); with OVCAR-3 it was 0.00893 µM (active); in the test with NCI-H226 it was 0.075 µM (active); in the test on EKVX, 5.93 µM (inactive). The GI50 in the test on CCRF-CEM was 0.0118 µM (active); in the test on OVCAR-8, 0.356 µM (active); in the test with A549, 0.0266 µM (active); with HL-60, 0.0149 µM (active); in the test with NCI/ADR-RES, > 46 µM (inactive); with SK-MEL-2 it was 0.0335 µM (active). Further, the GI50 with A498 is 0.133 µM (active); in the test with RXF 393 it was 0.0333 µM (active); in the test on SF-268, 0.0703 µM (active); with HOP-62, 0.246 µM (active); in the test on HOP-92 it was > 36.4 µM (inactive); with HCT-116, 0.027 µM (active). Moreover, the GI50 is 0.0094 µM (active) in the test with KM12 and 0.0459 µM (active) in the test on Hs-578T.

As to `O=C(NC(OCc1ccccc1)(C(F)(F)F)C(F)(F)F)OCc1ccccc1`, the GI50 in the test on HT-29 was 18 µM (inactive); with HCC 2998, 15.4 µM (inactive); in the test with RPMI-8226 it was 16.4 µM (inactive); in the test on OVCAR-3, 15.3 µM (inactive); in the test with NCI-H226, 14.1 µM (inactive); with EKVX, 15.2 µM (inactive). Moreover, the GI50 was 16.1 µM (inactive) with CCRF-CEM; 16.3 µM (inactive) with OVCAR-8; 15 µM (inactive) with A549; 17.1 µM (inactive) in the test with HL-60; 12.6 µM (inactive) in the test on NCI/ADR-RES; 15.3 µM (inactive) in the test with SK-MEL-2. Also, the GI50 in the test on A498 is 17.7 µM (inactive); with RXF 393, 12.5 µM (inactive); in the test on SF-268, 18.2 µM (inactive); with HOP-62, 15.1 µM (inactive); with HOP-92 it was 14.7 µM (inactive); in the test on HCT-116 it was 16.4 µM (inactive). In addition, the GI50 with KM12 was 16.4 µM (inactive); in the test on Hs-578T, 13.9 µM (inactive).

Turning to `Cc1ccc(SC[C@@]2(C(F)F)NC(=O)NC2=O)cc1`, the GI50 in the test with HT-29, in the test on HCC 2998, in the test on RPMI-8226, in the test on OVCAR-3, in the test on NCI-H226 and in the test with EKVX was > 100 µM (inactive) in each case. Further, the GI50 in the test with CCRF-CEM, in the test with OVCAR-8, in the test with A549, in the test with HL-60, in the test with NCI/ADR-RES and in the test on SK-MEL-2 was > 100 µM (inactive) in each case. Also, the GI50 with A498, with RXF 393, in the test with SF-268, with HOP-62, in the test with HOP-92 and in the test on HCT-116 was > 100 µM (inactive) throughout. Besides, the GI50 with KM12 and in the test with Hs-578T was > 100 µM (inactive) in each case.

In the case of `COc1ccc2c(c1)CC[C@@H]1[C@@H]2CC[C@]2(C)[C@@H](O)/C(=C/c3ccncc3)C[C@@H]12`, the GI50 was 3.99 µM (inactive) in the test on HT-29; 8.59 µM (inactive) in the test with HCC 2998; 3.69 µM (inactive) in the test with RPMI-8226; 18.5 µM (inactive) with OVCAR-3; 20.1 µM (inactive) with NCI-H226; 18.5 µM (inactive) in the test with EKVX. Further, the GI50 is 11.1 µM (inactive) with CCRF-CEM; 14.4 µM (inactive) in the test on OVCAR-8; 9.84 µM (inactive) in the test with A549; 7.98 µM (inactive) in the test with HL-60; 15 µM (inactive) in the test on NCI/ADR-RES; 16.3 µM (inactive) with SK-MEL-2. Further, the GI50 in the test on A498 is 17.5 µM (inactive); with RXF 393 it was 4.25 µM (inactive); with SF-268, 12.6 µM (inactive); in the test with HOP-62, 16.9 µM (inactive); in the test with HOP-92 it was 14 µM (inactive); with HCT-116 it was 11 µM (inactive). In addition, the GI50 with KM12 was 9.71 µM (inactive); with Hs-578T it was 12.8 µM (inactive).

As to `CCCCCOC(=O)c1cc2cc(CCl)ccc2oc1=O`, the GI50 with HT-29 is 7.01 µM (inactive); in the test with HCC 2998 it was 14.9 µM (inactive); with RPMI-8226 it was 18.9 µM (inactive); in the test on OVCAR-3 it was 2.82 µM (inactive); with NCI-H226 it was 15.7 µM (inactive); with EKVX it was 3.37 µM (inactive). Further, the GI50 with CCRF-CEM was 13.1 µM (inactive); with OVCAR-8 it was 17.9 µM (inactive); with A549, 1.97 µM (inactive); with HL-60 it was 0.552 µM (active); in the test on NCI/ADR-RES it was 17.3 µM (inactive); with SK-MEL-2, 0.466 µM (active). The GI50 with A498 is 2.44 µM (inactive); in the test on RXF 393, 2.18 µM (inactive); with SF-268, 13.2 µM (inactive); in the test with HOP-62, 8.28 µM (inactive); with HOP-92, 2.62 µM (inactive); with HCT-116, 10.1 µM (inactive). Moreover, the GI50 was 13.6 µM (inactive) in the test with KM12 and 7.23 µM (inactive) in the test on Hs-578T.

For `CCOC(NC(=O)CC)(C(F)(F)F)C(F)(F)F`, the GI50 in the test with HT-29, with HCC 2998, in the test with RPMI-8226, in the test on OVCAR-3, in the test with NCI-H226 and in the test with EKVX was > 100 µM (inactive) each time. In addition, the GI50 in the test with CCRF-CEM, in the test on OVCAR-8, in the test on A549, with HL-60, in the test on NCI/ADR-RES and with SK-MEL-2 was > 100 µM (inactive) in each case. The GI50 in the test on A498 is > 100 µM (inactive); in the test on RXF 393, 0.145 µM (active); in the test with SF-268, > 100 µM (inactive); with HOP-62, > 100 µM (inactive); in the test on HOP-92, > 100 µM (inactive); in the test on HCT-116 it was > 100 µM (inactive). Also, the GI50 with KM12 and with Hs-578T was > 100 µM (inactive) each time.

`Oc1c(C(Nc2ccccn2)c2ccccc2)ccc2cccnc12` (stereo not given): the GI50 was 4.55 µM (inactive) with HT-29; 49.9 µM (inactive) with HCC 2998; 2.56 µM (inactive) with RPMI-8226; 2.51 µM (inactive) in the test with OVCAR-3; 2.59 µM (inactive) in the test with NCI-H226; 3.01 µM (inactive) with EKVX. The GI50 with CCRF-CEM was 1.37 µM (inactive); in the test with OVCAR-8, 4.01 µM (inactive); in the test on A549, 4.35 µM (inactive); in the test with HL-60 it was 2.28 µM (inactive); with NCI/ADR-RES it was 1.82 µM (inactive); in the test on SK-MEL-2, 3.55 µM (inactive). For the same compound, the GI50 with A498 was 10.2 µM (inactive); with RXF 393, 3.84 µM (inactive); in the test with SF-268, 2.94 µM (inactive); in the test on HOP-62, 4.94 µM (inactive); in the test on HOP-92, 1.94 µM (inactive); with HCT-116, 3.26 µM (inactive). In addition, the GI50 in the test with KM12 was 4.59 µM (inactive); with Hs-578T, 12.4 µM (inactive).

`CCC(c1c[nH]c2ccc(Br)cc12)c1c[nH]c2ccc(Br)cc12`: the GI50 is 3.08 µM (inactive) in the test with HT-29; 2.19 µM (inactive) with HCC 2998; 2.5 µM (inactive) with RPMI-8226; 3.96 µM (inactive) with OVCAR-3; 11.8 µM (inactive) in the test with NCI-H226; 5.14 µM (inactive) with EKVX. Also, the GI50 with CCRF-CEM was 2.95 µM (inactive); in the test on OVCAR-8, 4.53 µM (inactive); with A549 it was 3.72 µM (inactive); with HL-60, 4.39 µM (inactive); with NCI/ADR-RES, 3.08 µM (inactive); in the test on SK-MEL-2 it was 10.6 µM (inactive). In addition, the GI50 is 3.79 µM (inactive) in the test on A498; 2.32 µM (inactive) in the test with RXF 393; 5.97 µM (inactive) in the test with SF-268; 10.5 µM (inactive) with HOP-62; 2.05 µM (inactive) in the test with HOP-92; 3.94 µM (inactive) in the test on HCT-116. Further, the GI50 was 1.97 µM (inactive) with KM12 and 5.82 µM (inactive) in the test with Hs-578T.
